Reference: patent publication US11407725B2 (The Board of Trustees of the University of Illinois, priority 2018, dated 2022)
Values joined by “and” are separate entries in the source; they are usually repeats but may differ in a detail not shown here. Equal entries are not always repeated.

Experiments:
[1] = Photophysical properties (absorbance, emission, extinction coefficient, quantum yield); format: physicochemical; settings: for λabs: maximum absorbance
K562 cells = test: Trypan blue cytotoxicity / viability assay; format: cell-based; settings: K562 cells; 6, 12 and 24 hours
Description: K562 cells were plated in a 96-well plate with 50,000 cells per well. Each well was filled to a final volume of 100 μL IMDM media with 0.25% DMSO. Wells were tested using red-AlDeSense or Ctrl-red-AlDeSense (1 μM and 5 μM each) or using a DMSO control. After 6-, 12-, and 24-hour incubation periods at 37° C. and 5% CO2, a 10 μL sample was removed from each condition and combined with 10 μL 0.4% w/v trypan blue in PBS. Samples were incubated for 3 minutes at room temperature before being loaded on a hemocytometer where live and dead cells were counted. Conditions were tested in triplicate for each time point. Samples were analyzed on an EVOS digital inverted microscope using transmitted white light for brightfield imaging and the Cy5 filter cube for trypan blue visualization.
K562 cells were plated in a 96-well plate at a density of 500,000 cells/mL in full IMDM media supplemented with either 1 μM or […] AlDeSense AM. Equivalent samples were supplemented with 1 μM or […] as a vehicle control. At 6, 12, and 24 hours, a 10 μL sample was removed from each of the samples and mixed 1:1 with a 0.4% wt/volume trypan blue solution in PBS. Samples were incubated for 1 minute at room temperature before being loaded onto a hemocytometer where live and dead cells were counted. Each sample was made in triplicate for each time point.

A549 cells [2] = test: Flow cytometry of A549 cells with red-AlDeSense; format: cell-based
Description: For all cell lines, 200,000 cells in a single-cell suspension were transferred into 1.5 mL Eppendorf tubes. Cells were pelleted by centrifugation at 400 g for 5 minutes at room temperature. After removing the supernatant by aspiration, cells were resuspended in 300 μL premixed PBS supplemented with verapamil, probenecid, and novobiocin. […] Samples were immediately stored on ice. Cells were stained with red-AlDeSense or Ctrl-red-AlDeSense (100 μL of 4 μM dye solution; dyes were normalized by fluorescence spectroscopy). Samples were analyzed on a BD LSR II Flow Cytometry Analyzer using a 488 nm laser and a 550 LP and 610/30 filter set. Samples were analyzed every 5 minutes for 15 minutes, with the samples being placed back on ice between data collection. Data were analyzed on FCS Express 6.04.

A549 cells [3] = test: Confocal imaging of A549 cells with red-AlDeSense; format: cell-based; settings: 1 μM dye
Description: Nunc™ Lab-Tek™ 8-well Chamber Coverglass (Thermo Fisher) were coated with poly-L-lysine (Trevigen). For cells that were also stained with an antibody, 2,000,000 cells were transferred to an Eppendorf tube. The cells were resuspended in 200 μL of antibody buffer (5% BSA and 1 mg/mL NaN3 in PBS) and treated with 2 μL FITC-labeled anti-CD44 antibody (10 mg/mL, Sino Biological) and left on ice for 20 minutes. In all cases, cells were added at 150,000 cells/well to the coated slides 1 hour prior to imaging. […] Cells were treated with 100 uL red-AlDeSense or Ctrl-red-AlDeSense solution (4 μM dye in imaging buffer; dyes were normalized by fluorescence spectroscopy) and 0.8 μL Hoescht 33342 (5 mg/mL in PBS) for 10 minutes. […] Hoescht 33342 was excited with a 405 nm laser and detected with a 415-502 filter set. FITC was excited with a 488 nm laser and detected with a 502-561 filter set. […] was excited with a 594 nm laser and detected with a 600-735 filter set. […] Images were analyzed using ZEN 3.0 (blue edition) software. Mean fluorescence for the FITC-labeled anti-CD44 antibody was multiplied by the cell diameter to account for its 1-dimensional cell membrane staining, as opposed to 2-dimensional intracellular staining of (Ctrl-)red-AlDeSense.

[4] = Response to reactive species, biological thiols and amines (chemostability)
Description: (e) Response of AlDeSense to various reactive oxygen species, biological thiols, and amines at concentrations of 100 μM (GSH was tested at 1 mM). For all assays, AlDeSense was used at 1 μM final concentration.
All assays were performed in 50 mM triethanolamine buffer red-AlDeSense was used at 2 μM. Enzyme concentrations affording 1 nmol substrate/minute were used. Reactive species were tested at 100 μM, except glutathione which was at 1 mM.

[5] = test system: e-CSC and non-CSC melanoma lung metastases; test: Ex vivo lung metastases imaging; format: in vivo, mice; settings: lungs perfused ex vivo, day 7 and 11
Description: Six to eight-week-old female C57BL/6J mice were purchased from Jackson Laboratory. Experimental metastases were established by injecting 2×10^5 melanoma cells via lateral tail vein injection. Mice were euthanized at either 7- or 11-days post injection. Immediately after euthanization, their lungs were excised and perfused with about 1 mL of either 15 μM AlDeSense AM or 15 μM Ctrl-AlDeSense AM in PBS. Outer portions of the lungs were rinsed in 15 mL of PBS to remove blood or excess dyes. After 2 hours incubation at room temperature (25° C.), the lungs were imaged on the IVIS spectrum imaging system (Perkin Elmer). Data was processed using Living Image software (Version 4.1).

[6] = test system: e-CSC and non-CSC B16F0 tumors; test: In vivo melanoma tumor fluorescence imaging; design: species or system mice; settings: 1 and 2 weeks
[7] = pKa determination (pH profile of fluorescence); settings: 40 mM Britton-Robinson buffer
Description: The fluorescence of 1 μM of each compound was measured in 40 mM Britton-Robinson buffer at pH 2-9 in 0.5 pH intervals. Each measurement was performed in triplicate. […] Error bars are ±standard deviation (SD).

Compound	bathochromic shift in absorbance and emission compared to AlDeSense [1] [nm]	maximum emission (λem) [1] [nm]	Quantum Yield ([1]; Probes 1-8)	λabs [1] [nm]	toxicity in cell viability assay (K562 cells)	extent of red-AlDeSense activation with DEAB (A549 cells [2]; A549 cells, plus 20 μM DEAB) [%]	A549 cells displaying high ALDH1A1 activity (A549 cells [2]; flow cytometry, 1 μM dye) [%]	A549 cells with high ALDH1A1 activity by confocal microscopy (A549 cells [3]) [%]	chemostability across reactive oxygen, nitrogen and sulfur species ([4]; species 100 μM, glutathione 1 mM, 2 μM red-AlDeSense)	ε [1] [M⁻¹ cm⁻¹]	λcm ([1]; Table 1) [nm]	ΔE00 ([1]; at 503 nm, intersecting wavelength of normalized absorbance and emission) [eV]	ΦF ([1]; prior to activation)	fluorescence of e-CSC lungs versus non-CSC lungs [5]	signal in e-CSC versus non-CSC tumors [6]	pKa [7]	response to thiols and amines ([4]; 100 μM (GSH 1 mM), 1 μM AlDeSense)	response to panel of reactive oxygen species ([4]; 100 μM species, 1 μM AlDeSense)
Cc1cc(C=O)c(F)c(F)c1C1=C2C=CC(=O)C=C2[Si](C)(C)c2cc(O)ccc21	100	614	0.21	594	nontoxic	67.8±3.4	78.1±0.3	77.6	only ALDH1A1 elicited turnover	–	–	–	–	–	–	–	–	–
Cc1cc(C=O)ccc1-c1c2cc(F)c(=O)cc-2oc2cc(O)c(F)cc12 [AlDeSense]	–	–	–	496	non-toxic	–	–	–	–	61000	516	2.46	0.04 and 0.041	higher	consistently higher signal	4.81	did not detect formation of fluorescent hemithioacetal and Schiff base products	did not observe any oxidized fluorescent products
